Experiments:
PI3K = system: T1, PI3K; type: biochemical; details: purified recombinant enzyme, ATP 1 uM, 1 h room temperature; read-out: IC50 against PI3K
T1 construct: other: purified recombinant enzyme, ATP 1 uM, 1 h room temperature
Protocol: The compound was serially diluted in 100% DMSO. The kinase reaction was incubated for 1 h at room temperature, and the reaction was terminated by the addition of PBS. IC50 values were subsequently determined using sigmoidal dose-response curve fit (variable slope).

range of cell lines = assay: Cellular proliferation inhibition (Alamar Blue); type: cell-based; details: 96 h; 4 days incubation, range of cell lines utilized
Protocol: Cells were seeded at optimal density in a 96 well plate and incubated for 4 days in the presence of test compound. Alamar Blue™ was subsequently added to the assay medium, and cells were incubated for 6 h before reading at 544 nm excitation, 590 nm emission. EC50 values were calculated using a sigmoidal dose response curve fit.

CYP450 1A2 = biological target: T2, CYP450 1A2 (Homo sapiens, UniProt P05177); assay: Cytochrome P450 inhibition; type: in vitro ADME; details: top concentration 100 uM
T2 sequence (P05177 1-516): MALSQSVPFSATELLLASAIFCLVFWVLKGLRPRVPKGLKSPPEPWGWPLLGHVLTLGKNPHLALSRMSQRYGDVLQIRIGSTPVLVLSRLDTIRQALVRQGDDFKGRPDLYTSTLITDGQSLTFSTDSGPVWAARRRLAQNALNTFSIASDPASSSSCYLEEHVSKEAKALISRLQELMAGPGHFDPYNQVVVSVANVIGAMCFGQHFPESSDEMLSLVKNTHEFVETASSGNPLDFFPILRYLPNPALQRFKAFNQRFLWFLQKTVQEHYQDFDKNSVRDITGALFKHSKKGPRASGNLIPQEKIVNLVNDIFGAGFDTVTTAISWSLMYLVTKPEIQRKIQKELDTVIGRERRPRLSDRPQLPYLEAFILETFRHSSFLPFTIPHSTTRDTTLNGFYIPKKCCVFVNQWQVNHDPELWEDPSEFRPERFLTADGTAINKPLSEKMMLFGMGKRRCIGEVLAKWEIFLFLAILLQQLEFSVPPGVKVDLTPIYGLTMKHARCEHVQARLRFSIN
Source text: (§1) Standard inhibitors (furafylline, sulfaphenazole, tranylcypromine, quinidine, ketoconazole) were used as controls. Plates were read using a BMG LabTechnologies PolarStar in fluorescence mode.

CYP450 2C19 = CYP450 2C19 (Homo sapiens, UniProt P33261); assay: Cytochrome P450 inhibition; type: in vitro ADME; details: top concentration 100 uM
Sequence of CYP450 2C19 (P33261 whole entry): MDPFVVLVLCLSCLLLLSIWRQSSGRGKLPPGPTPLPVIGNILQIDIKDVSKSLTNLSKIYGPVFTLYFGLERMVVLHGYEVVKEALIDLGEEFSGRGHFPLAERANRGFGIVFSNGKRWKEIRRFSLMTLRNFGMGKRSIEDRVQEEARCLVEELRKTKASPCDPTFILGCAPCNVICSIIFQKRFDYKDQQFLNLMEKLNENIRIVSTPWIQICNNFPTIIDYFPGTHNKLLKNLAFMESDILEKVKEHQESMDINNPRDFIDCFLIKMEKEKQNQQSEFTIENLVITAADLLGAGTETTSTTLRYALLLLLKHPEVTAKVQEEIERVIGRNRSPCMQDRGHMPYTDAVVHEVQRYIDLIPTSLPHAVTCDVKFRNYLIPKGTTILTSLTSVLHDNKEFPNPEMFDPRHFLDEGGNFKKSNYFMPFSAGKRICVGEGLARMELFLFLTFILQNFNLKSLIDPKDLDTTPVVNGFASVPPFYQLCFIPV
Source text: as §1

CYP450 2C9 = CYP450 2C9 (Homo sapiens, UniProt P11712); assay: Cytochrome P450 inhibition; type: in vitro ADME; details: top concentration 100 uM
Sequence of CYP450 2C9 (P11712 whole entry): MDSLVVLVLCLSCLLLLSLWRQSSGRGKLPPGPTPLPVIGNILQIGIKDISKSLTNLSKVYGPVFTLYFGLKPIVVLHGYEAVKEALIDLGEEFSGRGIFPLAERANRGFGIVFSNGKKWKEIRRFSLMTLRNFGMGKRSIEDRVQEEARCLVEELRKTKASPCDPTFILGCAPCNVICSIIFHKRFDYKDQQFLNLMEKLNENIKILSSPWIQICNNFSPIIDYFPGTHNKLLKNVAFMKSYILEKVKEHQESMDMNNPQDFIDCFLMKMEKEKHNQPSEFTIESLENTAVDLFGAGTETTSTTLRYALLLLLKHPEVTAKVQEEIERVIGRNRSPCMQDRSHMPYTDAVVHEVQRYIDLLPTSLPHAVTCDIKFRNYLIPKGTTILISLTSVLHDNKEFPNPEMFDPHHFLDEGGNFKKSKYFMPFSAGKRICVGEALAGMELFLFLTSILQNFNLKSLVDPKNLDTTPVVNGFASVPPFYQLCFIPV
Source text: as §1

CYP450 2D6 = CYP450 2D6 (Homo sapiens, UniProt P10635); assay: Cytochrome P450 inhibition; type: in vitro ADME; details: top concentration 100 uM
Sequence of CYP450 2D6 (P10635 whole entry): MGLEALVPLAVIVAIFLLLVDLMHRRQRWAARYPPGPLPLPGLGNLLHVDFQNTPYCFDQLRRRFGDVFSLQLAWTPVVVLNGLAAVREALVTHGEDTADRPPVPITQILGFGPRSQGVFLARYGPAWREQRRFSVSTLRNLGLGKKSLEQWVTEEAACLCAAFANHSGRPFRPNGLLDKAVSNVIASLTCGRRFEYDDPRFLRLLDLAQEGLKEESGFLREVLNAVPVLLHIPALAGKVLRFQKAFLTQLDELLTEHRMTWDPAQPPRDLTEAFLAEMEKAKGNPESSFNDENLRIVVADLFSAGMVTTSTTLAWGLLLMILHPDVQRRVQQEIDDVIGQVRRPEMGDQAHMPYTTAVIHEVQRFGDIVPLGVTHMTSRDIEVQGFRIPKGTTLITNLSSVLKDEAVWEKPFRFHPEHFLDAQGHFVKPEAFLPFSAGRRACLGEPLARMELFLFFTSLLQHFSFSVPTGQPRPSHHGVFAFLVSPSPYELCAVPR
Source text: as §1

CYP450 3A4 = CYP450 3A4 (Homo sapiens, UniProt P08684); assay: Cytochrome P450 inhibition; type: in vitro ADME; details: top concentration 100 uM
Sequence of CYP450 3A4 (P08684 whole entry): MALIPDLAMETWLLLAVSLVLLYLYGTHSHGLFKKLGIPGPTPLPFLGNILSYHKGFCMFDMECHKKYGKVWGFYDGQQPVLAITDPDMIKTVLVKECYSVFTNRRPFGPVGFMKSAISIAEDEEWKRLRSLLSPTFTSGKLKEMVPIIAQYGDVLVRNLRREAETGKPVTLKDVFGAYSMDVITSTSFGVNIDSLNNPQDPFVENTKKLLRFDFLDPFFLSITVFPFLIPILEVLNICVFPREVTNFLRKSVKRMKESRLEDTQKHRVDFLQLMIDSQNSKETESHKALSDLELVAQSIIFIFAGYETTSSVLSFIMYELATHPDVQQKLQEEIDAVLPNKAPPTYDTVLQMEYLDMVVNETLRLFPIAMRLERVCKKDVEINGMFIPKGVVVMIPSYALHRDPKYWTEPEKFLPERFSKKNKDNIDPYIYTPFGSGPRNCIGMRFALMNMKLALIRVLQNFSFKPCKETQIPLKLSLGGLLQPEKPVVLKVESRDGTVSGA
Source text: as §1

[1] = Plasma protein binding (equilibrium dialysis); type: in vitro ADME; details: 10% plasma (v/v in buffer), 37° C., read-out: fraction unbound (Fu)
Protocol: Solutions of test compound (5 um, 0.5% final DMSO concentration) were prepared in buffer and 10% plasma (v/v in buffer). A 96 well HT dialysis plate was assembled so that each well was divided in two by a semi-permeable cellulose membrane. The buffer solution was added to one side of the membrane and the plasma solution to the other side; incubations were then conducted at 37° C. over 2 h in triplicate. The cells were subsequently emptied, and the solutions for each batch of compounds were combined into two groups (plasma-free and plasma-containing) then analysed by LC-MSMS using two sets of calibration standards for plasma-free (6 points) and plasma-containing solutions (7 points).

[2] = Aqueous solubility at physiological pH; type: physicochemical; details: aqueous medium at physiological pH, pH 7.4, aqueous buffer
in vitro = details: human, Caco-2
Protocol: Assessment of compound permeability was subsequently conducted. The compounds were applied to the apical surface (A) of cell monolayers and compound permeation into the basolateral (B) compartment was measured. This was performed in the reverse direction (B-A) to investigate active transport. A permeability coefficient value, Papp, for each compound, a measure of the rate of permeation of the compound across the membrane, was calculated.

CS(=O)(=O)N1CCN(Cc2cc3nc(-c4cccc5[nH]ncc45)nc(N4CCOCC4)c3s2)CC1 [compound of the invention, 2-(1H-Indazol-4-yl)-6-(4-methanesulfonyl-piperazin-1-ylmethyl)-4-morpholin-4-yl-thieno[3,2-d]pyrimidine]
IC50 (PI3K): […] | EC50 (range of cell lines): ≤ 50 µM | IC50 (CYP450 1A2): ≥ 5 µM | IC50 (CYP450 2C19): ≥ 5 µM | IC50 (CYP450 2C9): ≥ 5 µM | IC50 (CYP450 2D6): ≥ 5 µM | IC50 (CYP450 3A4): ≥ 5 µM | fraction unbound at 2 h, 5 um [1]: ≥ 0.1 | solubility [2]: > 100 µM | Papp (in vitro): ≥ 1 ×10⁻⁶ cm/s

Reference: patent US8987260B2, “Pharmaceutical compounds” (F. Hoffmann-La Roche AG, priority 2006, dated 2015)
